Measurements as given in ChEMBL document CHEMBL5665443, “Enzyme Inhibitor Single Concentration assay results for EUbOPEN Chemogenomics Library” (2024).

Columns and labels:
[1] = target: Uracil-DNA glycosylase (Homo sapiens) (UniProt P13051); conditions: Compound Concentration 10.0 uM, Hit No;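 also: UNG excision on a quenched double-stranded DNA oligo probe, with APE1 added for strand incision and turnover, read as fluorescence at 594 nm as strands separate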
Description: Inhibition of UNG by quantifying inhibition of UNG-mediated cleavage and dissociation of quenched duplex DNA oligonucleotides, measured as fluorescence at 594 nm. To generate a functional strand incision and increase turn-over this assay is coupled to APE1.

[2] = target: T1, Endonuclease 8-like 2 (Homo sapiens) (UniProt Q969S2); conditions: Compound Concentration 10.0 uM, Hit No;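 also: fluorescence at 594 nm reports NEIL2 cutting and release of a quenched double-stranded DNA oligo substrate, reduced signal read as inhibition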
T1 sequence (whole entry): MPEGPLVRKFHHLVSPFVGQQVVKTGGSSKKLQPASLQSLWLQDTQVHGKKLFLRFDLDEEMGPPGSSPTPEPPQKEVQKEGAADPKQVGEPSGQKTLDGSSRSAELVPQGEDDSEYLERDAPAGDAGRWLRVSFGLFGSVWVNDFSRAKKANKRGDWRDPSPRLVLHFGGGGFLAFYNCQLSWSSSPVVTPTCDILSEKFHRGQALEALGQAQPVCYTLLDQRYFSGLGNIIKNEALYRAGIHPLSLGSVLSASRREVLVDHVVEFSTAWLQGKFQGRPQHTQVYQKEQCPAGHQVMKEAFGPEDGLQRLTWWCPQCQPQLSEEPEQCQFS
Description: Inhibition of NEIL2 by quantifying inhibition of NEIL2-mediated cleavage and dissociation of quenched duplex DNA oligonucleotides, measured as fluorescence at 594 nm.

[3] = target: T2, Single-strand selective monofunctional uracil DNA glycosylase (Homo sapiens) (UniProt Q53HV7); conditions: Compound Concentration 10.0 uM;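 also: enzymatic SMUG1 assay coupled with APE1, reading fluorescence at 594 nm released when a quenched double-stranded DNA oligonucleotide substrate is cleaved and separated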
T2 sequence (whole entry): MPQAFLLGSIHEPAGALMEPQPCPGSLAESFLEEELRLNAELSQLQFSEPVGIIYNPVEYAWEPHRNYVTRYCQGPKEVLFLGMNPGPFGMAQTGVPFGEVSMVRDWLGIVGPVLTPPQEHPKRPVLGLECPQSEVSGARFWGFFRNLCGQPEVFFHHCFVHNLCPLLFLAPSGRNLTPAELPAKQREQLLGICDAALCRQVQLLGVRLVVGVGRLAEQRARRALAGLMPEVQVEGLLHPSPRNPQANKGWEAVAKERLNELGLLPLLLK
Description: Inhibition of SMUG1 by quantifying inhibition of SMUG1-mediated cleavage and dissociation of quenched duplex DNA oligonucleotides, measured as fluorescence at 594 nm. To generate a functional strand incision and increase turn-over this assay is coupled to APE1.

[4] = target: T3, Endonuclease III-like protein 1 (Homo sapiens) (UniProt P78549); conditions: Compound Concentration 10.0 uM;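 also: enzyme assay tracking NTHL1 cutting and release of a quenched double-stranded DNA oligo substrate, read as fluorescence at 594 nm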
T3 sequence (whole entry): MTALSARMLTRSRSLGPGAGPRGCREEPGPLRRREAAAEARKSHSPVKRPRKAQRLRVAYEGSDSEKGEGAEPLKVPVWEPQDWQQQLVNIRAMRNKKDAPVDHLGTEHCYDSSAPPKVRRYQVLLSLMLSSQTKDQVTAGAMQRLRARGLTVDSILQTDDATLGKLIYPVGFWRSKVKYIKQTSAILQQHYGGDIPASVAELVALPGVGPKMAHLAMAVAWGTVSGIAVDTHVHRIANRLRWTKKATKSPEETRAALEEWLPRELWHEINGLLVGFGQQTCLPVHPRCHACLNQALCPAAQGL
Description: Inhibition of NTHL1 by quantifying inhibition of NTHL1-mediated cleavage and dissociation of quenched duplex DNA oligonucleotides, measured as fluorescence at 594 nm.

[5] = target: T4, Adenine DNA glycosylase (Homo sapiens) (UniProt Q9UIF7); conditions: Compound Concentration 10.0 uM, Hit No;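 also: human MUTYH activity read as 594 nm fluorescence from cleavage and release of a quenched DNA duplex, coupled with APE1 for strand incision, lower signal meaning inhibition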
T4 sequence (whole entry): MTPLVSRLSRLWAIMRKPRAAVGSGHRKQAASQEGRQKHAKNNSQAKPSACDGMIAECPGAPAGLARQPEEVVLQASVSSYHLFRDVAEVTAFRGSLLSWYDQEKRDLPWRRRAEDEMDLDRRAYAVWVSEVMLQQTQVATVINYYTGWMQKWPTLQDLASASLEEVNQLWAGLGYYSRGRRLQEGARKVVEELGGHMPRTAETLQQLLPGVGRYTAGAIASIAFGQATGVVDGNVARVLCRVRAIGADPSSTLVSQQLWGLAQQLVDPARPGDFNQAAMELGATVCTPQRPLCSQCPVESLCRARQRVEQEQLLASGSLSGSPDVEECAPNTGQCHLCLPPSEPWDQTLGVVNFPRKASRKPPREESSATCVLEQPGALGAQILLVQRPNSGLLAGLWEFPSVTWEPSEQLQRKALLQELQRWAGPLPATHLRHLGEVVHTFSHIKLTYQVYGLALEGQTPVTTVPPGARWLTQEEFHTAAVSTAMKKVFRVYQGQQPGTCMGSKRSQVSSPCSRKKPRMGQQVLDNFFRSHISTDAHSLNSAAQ
Description: Inhibition of MUTYH by quantifying inhibition of MUTYH-mediated cleavage and dissociation of quenched duplex DNA oligonucleotides, measured as fluorescence at 594 nm. To generate a functional strand incision and increase turn-over this assay is coupled to APE1.

[6] = target: Methyl-CpG-binding domain protein 4 (Homo sapiens) (UniProt O95243); conditions: Compound Concentration 10.0 uM;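 also: MBD4 activity read as fluorescence at 594 nm from cleavage and release of a quenched duplex DNA oligonucleotide, with APE1 coupled to incise the strand and raise turnover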
Description: Inhibition of MBD4 by quantifying inhibition of MBD4-mediated cleavage and dissociation of quenched duplex DNA oligonucleotides, measured as fluorescence at 594 nm. To generate a functional strand incision and increase turn-over this assay is coupled to APE1.

[7] = target: DNA-3-methyladenine glycosylase (Homo sapiens) (UniProt P29372); conditions: Compound Concentration 10.0 uM, Hit No;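 also: enzyme assay where MPG cuts a quenched duplex DNA oligonucleotide probe, paired with APE1 for strand incision and turnover, read as fluorescence at 594 nm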
Description: Inhibition of MPG by quantifying inhibition of MPG-mediated cleavage and dissociation of quenched duplex DNA oligonucleotides, measured as fluorescence at 594 nm. To generate a functional strand incision and increase turn-over this assay is coupled to APE1.

[8] = target: G/T mismatch-specific thymine DNA glycosylase (Homo sapiens) (UniProt Q13569); conditions: Compound Concentration 10.0 uM;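 also: human TDG cleavage of quenched duplex DNA oligonucleotides coupled to APE1, strand release read as fluorescence at 594 nm, inhibition of TDG activity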
Description: Inhibition of TDG by quantifying inhibition of TDG-mediated cleavage and dissociation of quenched duplex DNA oligonucleotides, measured as fluorescence at 594 nm. To generate a functional strand incision and increase turn-over this assay is coupled to APE1.

[9] = target: N-glycosylase/DNA lyase (Homo sapiens) (UniProt O15527); conditions: Compound Concentration 10.0 uM;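 also: OGG1 cleavage of a quenched duplex DNA oligonucleotide, coupled to APE1 for strand incision, read as fluorescence at 594 nm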
Description: Inhibition of OGG1 by quantifying inhibition of OGG1-mediated cleavage and dissociation of quenched duplex DNA oligonucleotides, measured as fluorescence at 594 nm. To generate a functional strand incision and increase turn-over this assay is coupled to APE1.

[10] = target: Endonuclease 8-like 1 (Homo sapiens) (UniProt Q96FI4); conditions: Compound Concentration 10.0 uM, Hit No;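 also: fluorescence at 594 nm from quenched duplex DNA oligonucleotides released by NEIL1 cleavage and strand separation, reported as reduction of this enzyme activity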
Chain of Endonuclease 8-like 1 (Homo sapiens) (Q96FI4 whole entry): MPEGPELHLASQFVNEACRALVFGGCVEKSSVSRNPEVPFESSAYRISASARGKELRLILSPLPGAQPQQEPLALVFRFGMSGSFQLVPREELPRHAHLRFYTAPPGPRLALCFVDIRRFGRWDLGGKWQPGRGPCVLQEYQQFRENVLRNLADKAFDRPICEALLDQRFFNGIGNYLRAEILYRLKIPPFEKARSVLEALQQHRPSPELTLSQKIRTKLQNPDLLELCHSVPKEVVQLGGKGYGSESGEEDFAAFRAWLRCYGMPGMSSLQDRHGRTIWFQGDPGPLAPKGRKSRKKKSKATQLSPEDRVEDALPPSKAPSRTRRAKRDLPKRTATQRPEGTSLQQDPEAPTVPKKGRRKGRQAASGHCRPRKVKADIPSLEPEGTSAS
Description: Inhibition of NEIL1 by quantifying inhibition of NEIL1-mediated cleavage and dissociation of quenched duplex DNA oligonucleotides, measured as fluorescence at 594 nm.

Chain of N-glycosylase/DNA lyase (Homo sapiens) (O15527 whole entry): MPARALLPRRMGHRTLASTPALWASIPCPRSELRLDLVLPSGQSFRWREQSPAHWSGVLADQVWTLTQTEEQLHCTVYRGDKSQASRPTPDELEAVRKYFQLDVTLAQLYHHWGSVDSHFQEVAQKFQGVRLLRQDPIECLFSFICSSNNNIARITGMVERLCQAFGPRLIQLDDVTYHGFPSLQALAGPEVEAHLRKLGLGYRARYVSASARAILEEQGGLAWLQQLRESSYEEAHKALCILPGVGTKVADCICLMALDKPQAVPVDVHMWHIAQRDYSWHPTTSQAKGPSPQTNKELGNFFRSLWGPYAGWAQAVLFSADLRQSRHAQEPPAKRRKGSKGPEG
Chain of Uracil-DNA glycosylase (Homo sapiens) (P13051 whole entry): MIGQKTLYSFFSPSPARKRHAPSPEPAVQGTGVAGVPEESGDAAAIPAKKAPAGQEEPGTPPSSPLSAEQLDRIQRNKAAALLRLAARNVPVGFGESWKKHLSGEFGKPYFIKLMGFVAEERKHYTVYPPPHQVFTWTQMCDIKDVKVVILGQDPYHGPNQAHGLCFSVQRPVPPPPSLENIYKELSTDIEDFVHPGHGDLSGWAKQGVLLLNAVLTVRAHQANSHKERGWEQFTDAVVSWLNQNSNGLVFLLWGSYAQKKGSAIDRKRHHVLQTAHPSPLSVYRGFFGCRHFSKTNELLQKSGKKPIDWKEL
Chain of Methyl-CpG-binding domain protein 4 (Homo sapiens) (O95243 whole entry, the tested form may be a part): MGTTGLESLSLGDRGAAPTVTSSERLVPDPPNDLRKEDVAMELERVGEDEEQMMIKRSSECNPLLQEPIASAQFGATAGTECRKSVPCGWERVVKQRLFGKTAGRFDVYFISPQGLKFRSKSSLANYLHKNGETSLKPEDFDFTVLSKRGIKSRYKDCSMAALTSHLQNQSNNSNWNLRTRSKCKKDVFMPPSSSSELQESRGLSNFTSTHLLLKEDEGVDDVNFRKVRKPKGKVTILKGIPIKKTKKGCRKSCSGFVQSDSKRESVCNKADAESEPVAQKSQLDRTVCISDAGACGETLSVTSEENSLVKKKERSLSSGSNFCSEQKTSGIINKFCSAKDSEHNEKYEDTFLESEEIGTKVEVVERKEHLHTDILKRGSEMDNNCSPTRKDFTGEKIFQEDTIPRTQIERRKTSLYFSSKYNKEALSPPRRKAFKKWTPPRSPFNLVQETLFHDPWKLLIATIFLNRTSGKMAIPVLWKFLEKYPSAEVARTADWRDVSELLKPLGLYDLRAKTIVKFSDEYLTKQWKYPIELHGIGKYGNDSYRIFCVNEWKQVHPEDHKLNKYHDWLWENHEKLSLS
Chain of G/T mismatch-specific thymine DNA glycosylase (Homo sapiens) (Q13569 whole entry): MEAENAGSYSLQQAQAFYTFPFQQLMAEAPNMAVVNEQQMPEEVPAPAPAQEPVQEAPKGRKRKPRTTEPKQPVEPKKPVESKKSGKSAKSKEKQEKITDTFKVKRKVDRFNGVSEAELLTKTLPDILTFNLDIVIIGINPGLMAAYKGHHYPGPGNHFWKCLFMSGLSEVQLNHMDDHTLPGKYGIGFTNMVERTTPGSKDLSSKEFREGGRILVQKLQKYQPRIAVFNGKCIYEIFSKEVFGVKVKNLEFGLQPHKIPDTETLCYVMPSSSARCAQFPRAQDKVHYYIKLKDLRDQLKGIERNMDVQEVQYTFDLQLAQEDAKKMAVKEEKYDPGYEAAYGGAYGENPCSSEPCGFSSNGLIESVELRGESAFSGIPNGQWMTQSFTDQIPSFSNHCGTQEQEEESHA
Chain of DNA-3-methyladenine glycosylase (Homo sapiens) (P29372 whole entry): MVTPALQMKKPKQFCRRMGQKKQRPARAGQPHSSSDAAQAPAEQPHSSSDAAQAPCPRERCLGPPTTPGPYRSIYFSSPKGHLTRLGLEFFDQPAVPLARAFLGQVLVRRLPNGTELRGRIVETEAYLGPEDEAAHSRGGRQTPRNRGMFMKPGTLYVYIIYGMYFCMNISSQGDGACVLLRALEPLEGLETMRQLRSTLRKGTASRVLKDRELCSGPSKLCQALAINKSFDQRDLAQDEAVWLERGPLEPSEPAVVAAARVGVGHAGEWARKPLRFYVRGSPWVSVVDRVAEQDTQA

Row | SMILES | inhibition [1] | inhibition [2] | inhibition ([3]; Hit No) | inhibition ([4]; Hit No) | inhibition [5] | inhibition ([6]; Hit No) | inhibition [7] | inhibition ([8]; Hit No) | inhibition ([9]; Hit No) | inhibition [10] | inhibition ([6]; Hit Yes) | inhibition ([8]; Hit Yes) | inhibition ([9]; Hit Yes) | inhibition ([3]; Hit Yes) | inhibition ([4]; Hit Yes)
1 | O=C1C[C@@H]2OCC=C3CN4CC[C@]56c7ccccc7N1[C@H]5[C@H]2[C@H]3C[C@H]46 | -3.11% | -1.88% | -0.692% | 10.5% | 38.1% | 11.5% | -1.64% | 11.6% | -7.16% | 0.602% | – | – | – | – | –
2 | COc1c(C(=O)/C=C/c2ccccc2)c(O)c(OC)c2occc12 | -2.63% | -3.15% | 3.49% | 20.4% | 19.8% | 19.3% | 7.88% | 11% | 0.34% | -0.435% | – | – | – | – | –
3 | c1ccc2nc(N3CCNCC3)ccc2c1 | 1.1% | 7.8% | 2.02% | 13.8% | 11.1% | -0.572% | -3.87% | 12.3% | -7.23% | 8.31% | – | – | – | – | –
4 | Cc1cccc([C@H]2CC[C@@H](N3CCN(c4cccnc4)CC3)CC2)c1 (mixture of isomers) | 1.66% | 9.59% | 15.5% | -0.258% | 35.8% | 56.1% | 39% | 47.1% | 4.72% | 1.34% | – | – | – | – | –
5 | O=C(O)c1ccc(S(=O)(=O)N(Cc2ccc(OC(F)(F)F)cc2)c2ncc(C(F)(F)F)cc2Cl)cc1 | 2.72% | 14.4% | 2.42% | 14.6% | 61.2% | 39.2% | 12.7% | 35% | 15.6% | 11.7% | – | – | – | – | –
6 | CC1(C)CN2C(CS/C(=N\C3CCCCC3)NC3CCCCC3)=CSC2=N1 | -3.07% | -0.86% | -4.87% | 11.3% | 4.05% | 7.88% | 8.86% | -0.781% | 5.96% | 6.38% | – | – | – | – | –
7 | N[C@](CC1c2ccccc2Oc2ccccc21)(C(=O)O)[C@H]1C[C@@H]1C(=O)O | -3.16% | 0.414% | -0.127% | 8.82% | 12.3% | 16.1% | 10.3% | 24.2% | -5.15% | 0.898% | – | – | – | – | –
8 | NC(N)=Nc1nc(CSCC/C(N)=N/S(N)(=O)=O)cs1 | -4.9% | 17.5% | -5.17% | -2.47% | 21.8% | 6.83% | 11.5% | 13.5% | 2.35% | 9.58% | – | – | – | – | –
9 | NS(=O)(=O)c1c(Cl)ccc(NC(=O)Nc2cccc(Cl)c2Cl)c1O | -6.48% | 3.51% | 8.49% | 29% | 10.9% | 14.2% | 14.5% | 16.5% | 6.41% | -2.13% | – | – | – | – | –
10 | COCCOCCn1nc2c(c1C)-c1c(Cl)ccc3c1c(C)c(C(=O)O)n3CCCOc1cc(cc3c(F)c(Cl)ccc13)CCc1cc(nn1C)CSC2 | 9.88% | 5.63% | 17.3% | -0.959% | 36% | 77.7% | 52.2% | 59.9% | 28.8% | -6.35% | – | – | – | – | –
11 | CC(C)c1cc(Br)c(NC(=O)Nc2cccnc2)c(Br)c1 | -2.82% | 7.55% | -3.86% | -2.73% | 0.0238% | 12.5% | 14.7% | 19.7% | -2.73% | 3.27% | – | – | – | – | –
12 | FC(F)(F)Oc1ccc(-c2ccc3nnc(C(F)(F)F)n3c2)cc1 | -4.54% | -5.19% | -3.97% | 27.8% | -0.755% | 3.41% | 7.52% | -4.99% | -7.36% | 0.158% | – | – | – | – | –
13 | CCOC(=O)N[C@@H]1CC[C@@H]2[C@@H](C1)C[C@H]1C(=O)O[C@H](C)[C@H]1[C@H]2/C=C/c1ccc(-c2cccc(F)c2)cn1 | -5.33% | -1.73% | 10.5% | 2.66% | 1.43% | -1.19% | -7.15% | 13.4% | 8.48% | 5.28% | – | – | – | – | –
14 | O=S(=O)(Nc1nnc2cc(OCC34CC5CC(CC(C5)C3)C4)c(C3CC3)cn12)C1CC1 | 12% | 11.9% | 11.5% | 10.5% | 84.7% | – | 62.1% | – | – | 6.23% | 80.9% | 73.8% | 53% | – | –
15 | NC(=O)c1cc(-c2ccc(S(=O)(=O)[C@H]3CC[C@H](Nc4ccc(C(F)(F)F)cn4)CC3)cc2)ccn1 | 4.02% | 9.33% | 12.2% | 17.1% | 25.9% | 10.9% | -6.62% | 8.07% | -3% | 11% | – | – | – | – | –
16 | CCc1nnc(NS(=O)(=O)c2ccc(NC(=S)NC(=O)/C=C/c3ccc(F)cc3)cc2)s1 | 3.3% | 9.5% | 24.8% | 23.2% | 54.8% | 48% | 31.8% | 49.8% | 12.1% | -4.5% | – | – | – | – | –
17 | CC(C)c1noc(N2CCC(COc3ccc(-c4ccc(S(C)(=O)=O)cc4)nc3)CC2)n1 | -6.54% | 5.01% | -6.43% | -6.14% | 18.2% | -9.32% | -8.23% | 3% | 3.18% | 10.9% | – | – | – | – | –
18 | O=C(O)c1ccccc1S(=O)(=O)NCCCCN1C(=O)c2cccc3cccc(c23)C1=O | -8.5% | 8% | 12.5% | -8.34% | 23.6% | 12% | 3.23% | 16.1% | 2.55% | 8.25% | – | – | – | – | –
19 | O=C(NS(=O)(=O)N1CCC1)c1cc(C2CC2)c(OCC23CC4CC(CC(C4)C2)C3)cc1F | 7.9% | 17.5% | – | – | 93% | – | 60.8% | – | – | 7.57% | 87.3% | 79.6% | 93.6% | 98.5% | 56.7%
20 | Cc1c(C2=CCN(C(=O)N(C)C(C)C)CC2)nnn1-c1cccnc1F | -8.86% | 9% | 11.5% | -9.8% | 17% | 0.847% | -1.32% | 17.2% | -1.95% | -0.649% | – | – | – | – | –
